The values below come from US20080318970A1, “Treatment of Infectious Diseases” (priority 2004, published 2008).

Usually MIC stands for the smallest concentration in the dilution series that meets the test's criterion for growth inhibition. A lower MIC goes with greater potency. What is called EC50 is the midpoint of the concentration-response curve. A low value points to greater potency. As usually defined, the CC50 is the concentration that lowers cell viability or growth by half. High values mean lower toxicity to the cells, low ones greater toxicity to the cells.

Molecules are shown by their SMILES. ≈ marks a conversion by molar mass, not a printed value. A value given as a limit tells only on which side of the number the result lay.

One data set relates to E. coli, LN 3164. As to the kind of experiment: Effect of chemosensitising compounds on DR (DR ratio) with ciprofloxacin, microtiter assay. Type of data set: cell-based. Conditions: MIC ciprofloxacin alone / MIC ciprofloxacin + chemosensitising compound at ¼ of its MIC; E. coli LN 3164. The procedure:
The effects of the chemosensitising compounds on DR were studied by the microtiter assay described above by exposing cells to 0-64 μg/ml anti-infective drug in the absence or presence of chemosensitising compound. Each experiment was repeated in tripleduplicate. MIC values represent the mean values of two separate experiments.
A log phase culture of bacteria was diluted with fresh pre-warmed medium and adjusted to a defined OD at 600 nm in order to give a final concentration of 1×10^4 bacteria/ml medium in each well. […] Anti-infective agent was added to the bacterial culture in the wells in two-fold dilutions in order to give final concentrations ranging from 0 to 64 μg/ml. Trays were incubated at 37° C. for 16 h. The DR ratio was defined as the ratio between the MIC value for anti-infective agent alone divided by the MIC for the anti-infective agent in the presence of the chemosensitising compound. This ratio represents the increase in apparent potency of the anti-infective agent caused by the chemosensitising compound, and may be expressed as
DR ratio=(MICanti-infective agent)/(MICanti-infective agent+chemosensitising compound)

The next data set concerns E. faecalis F84. As to the kind of experiment: Checkerboard combination study (FIC index). Type of data set: cell-based, Enterococcus faecalis. The following applies: MDR isolate. The procedure: Enterococcus faecalis, F84. A multidrug resistant clinical isolate.
(§1) The synergistic effect was studied by checkerboard combination studies exposing cells to 0-64 μg/ml anti-infective agent in the absence or presence of trans-flupenthixol, cis-flupenthixol or trans-clopenthixol. Each experiment was repeated in tripleduplicate. MIC values represent the mean values of two separate experiments,
A log phase culture of bacteria was diluted with fresh pre-warmed medium and adjusted to a defined OD at 600 nm in order to give a final concentration of 1×10^4 bacteria/ml medium in each well. […] Anti-infective agent was added to the bacterial culture in the wells in two-fold dilutions in order to give final concentrations ranging from 0 to 64 μg/ml Trays were incubated at 37° C. for 16 h. Wells were assessed visually for growth. The Fractional Inhibitory Concentration (FIC) was calculated for each anti-infective agent alone and in combination with trans-flupenthixol, cis-flupenthixol or trans-clopenthixol. The following formulae were used to calculate the FIC index:
(§2) FIC=FICchemosensitising compound+FICanti-infective agent
(§3) FICchemosensitising compound=(MICchemosensitising compound+anti-infective agent)/(MICchemosensitising compound)
(§4) FICanti-infective agent=(MICanti-infective agent+chemosensitising compound/(MICanti-Infective agent)
(§5) Synergy was defined as a FIC index of <0.5.

For the next data set, the system named is E. faecalis F86. As to the kind of experiment: Checkerboard combination study (FIC index). Type of data set: cell-based, Enterococcus faecalis. Conditions: anti-infective agent Dicloxacillin; isolate susceptible (S). The procedure:
Enterococcus faecalis, F86. Susceptible clinical isolate. No development of resistance.
as §1
(§6) A log phase culture of bacteria was diluted with fresh pre-warmed medium and adjusted to a defined OD at 600 nm in order to give a final concentration of 1×10^4 bacteria/ml medium in each well. Each chemosensitising compound was added to the bacterial culture in the wells in two-fold dilutions in order to give final concentrations ranging from 0 to 8 μg/ml. Anti-infective agent was added to the bacterial culture in the wells in two-fold dilutions in order to give final concentrations ranging from 0 to 64 μg/ml Trays were incubated at 37° C. for 16 h. Wells were assessed visually for growth. The Fractional Inhibitory Concentration (FIC) was calculated for each anti-infective agent alone and in combination with trans-flupenthixol, cis-flupenthixol or trans-clopenthixol. The following formulae were used to calculate the FIC index:
as §2, §3, §4, §5

The next data set deals with S. aureus E45. As to the kind of experiment: Checkerboard combination study (FIC index). The class given is cell-based, Staphylococcus aureus. The following applies: isolate resistant (R). The procedure: Staphylococcus aureus E45 MRSA. Clinical isolate. Resistant to methicillin. Susceptible to teicoplanin chloramphenicol, fosfomycin, netilmicin and vancomycin.
as §1, §6, §2, §3, §4, §5

The subject of another data set is E. coli LN 3164. As to the kind of experiment: Checkerboard combination study (FIC index). The class given is cell-based. The following applies: MDR isolate. The procedure: E. coli, LN 3164. Acr AB-ToIC MDR in vitro-selected mutant. Resistant to tetracycline, beta-lactams, fluoroquinolones, chloramphenicol and aminoglycosides.
as §1, §6, §2, §3, §4, §5

For a further data set, the system named is E. coli 331ME. As to the kind of experiment: Checkerboard combination study (FIC index). The class given is cell-based. The following applies: MDR isolate. On the procedure:
E. coli 331 ME. In vivo-selected multidrug resistant clinical isolates of E. coli. Strains were isolated from a patient with severe cystitis/urosepsis. Resistant to tetracycline, beta-lactams, fluoroquinolones, chloramphenicol and aminoglycosides.
as §1, §6, §2, §3, §4, §5

The subject of the next data set is S. aureus O11. The class given is cell-based.
In data set [1] the test system is Enterococcus faecalis BG-029. As to the kind of experiment: MIC by microdilution test (NCCLS). Conditions: clinical isolate from human urine, resistant to ciprofloxacin. Type of data set: cell-based. On the procedure:
A clinical isolate of Enterococcus faecalis BG-029 from human urine was used.
The MICs were determined by the microdilution test according to the NCCLS Guidelines.

A further data set deals with HIV-1 strain HTLV-IIIB. As to the kind of experiment: Inhibition of HIV-1 replication in MT4 cells (MTT assay). The class given is cell-based. The procedure:
Each experiment was repeated in tripleduplicate. MIC values represent the mean values of two separate experiments.
The HIV-1 strain HTLV-IIIB were propagated in H9 cells at 37° C., 5% CO2 using RPMI 1640 with 10% heat-inactivated foetal calf serum (FCS) and antibiotics (growth medium). Culture supernatant was filtered ([…]), aliquotted, and stored at −80° C. until use. The HIV-1 strain was obtained from NIH AIDS Research and Reference Program.
(§7) Compounds were examined for possible antiviral activity against strain 111B of HIV-1 using MT4 cells as target cells. MT4 cells were incubated with virus (0.005 MOI) and growth medium containing the test dilutions of compound(s) for six days in parallel with virus-infected and uninfected control cultures without compound added. Expression of HIV in the cultures was indirectly quantified using the MTT assay as previously described. Compounds mediating less than 30% reduction of HIV expression were considered without biological activity. Compounds were tested in parallel for cytotoxic effect in uninfected MT4 cultures containing the test dilutions of compound as described above. Cultures for test of both antiviral activity and cytotoxic effect were set up in tripleduplicates, […] per culture in micro titre plates.
The 50% inhibitory concentration was determined by interpolation from the plots of percent inhibition versus concentration of compound.
EC50 is defined as the effective concentration that inhibits 50% of viral production, 50% of viral infectivity, or 50% of the virus-induced cytopathic effect.
(In general: Tetrazolium dyes change colour on reduction, which living cells bring about.)

The next data set relates to uninfected MT4 cells. As to the kind of experiment: Cytotoxic effect in uninfected MT4 cultures. The class given is cell-based. The procedure:
as §7
CC50 is defined as the inhibitory concentration that reduces cellular growth or viability of uninfected cells by 50%.

Setting [2] is: anti-infective agent Dicloxacillin.
The mark [3] stands for this setting: anti-infective agent Ciprofloxacin.
The mark [4] stands for this setting: anti-infective agent Gentamicin.
Where [5] appears, read: anti-infective agent Piperacillin.
Where [6] appears, read: alone, at the concentrations used.

`OCCN1CCN(CC/C=C2\c3ccccc3Sc3ccc(Cl)cc32)CC1` [trans-clopenthixol]: the DR ratio in the data set with E. coli, LN 3164 is reported as 128. Besides, the FIC index turned out to be 0.03 in the data set on E. faecalis F84 (setting [2]); 0.06 in the data set with E. faecalis F84 (anti-infective agent Vanomycin); 0.25 in the data set with E. faecalis F86; 0.06 with S. aureus E45 (setting [2]); 0.06 in the data set with S. aureus E45 (anti-infective agent Fucidic acid); 0.063 in the data set with E. coli LN 3164 (setting [3]). Also, the FIC index with E. coli LN 3164 (setting [4]) was 0.063; in the data set with E. coli LN 3164 (setting [5]), 0.063; with E. coli 331ME (setting [3]), 0.003; with E. coli 331ME (setting [4]) it was 0.008; in the data set on E. coli 331ME (setting [5]), 0.063. Besides, the “Frequency on emergence of resistance” value with S. aureus O11 (1 μg of ciprofloxacin per ml (two times the MIC) in the presence of inhibitor (1 μg/ml)) was <1 × 10^−10. In addition, the “decrease of the frequency of spontaneous emergence of ciprofloxacin resistance” value in the data set on S. aureus O11 (inhibitor 1 μg/ml) is at least 100 fold. The “toxic effect of the inhibitor on S. aureus plated in the absence of ciprofloxacin (in words)” value in the data set on S. aureus O11 (inhibitor 1 μg/ml) was “affected neither the colony-forming ability nor the colony size”. This molecule also yielded an MIC in data set [1] of 6 µg/mL (≈ 15 µM). The “antiviral effect (in words)” value with HIV-1 strain HTLV-IIIB (setting [6]) is listed as “no antiviral or cytotoxic effect”. The molecule further registered an EC50 with HIV-1 strain HTLV-IIIB (compound alone, MT4 cells, six days) above 3 µM. Moreover, the “cytotoxic effect (in words)” value in the data set with uninfected MT4 cells (setting [6]) was “no antiviral or cytotoxic effect”. Besides, the CC50 in the data set with uninfected MT4 cells (compound alone, uninfected MT4) was above 3 µM.
